The values that follow come from patent US10385072B2, “Gold(III) complexes as anticancer agents and a method of treating cancer” (King Fahd University of Petroleum and Minerals, priority 2017, dated 2019).

Common to all, as to format: cell-based, human
The test system of one assay is A549 cells. In words: Dose-response curves in A549 cells. Conditions: 5 days after contacting. As to the method:
(§1) Gold(III) compounds were dissolved in DMSO (final concentration of the gold(III) complexes was 10 mM) and stored at −80° C. in volumes of 500 μL or aliquoted into volumes of 10 μL and stored at −20° C. (used once without refreezing). They were then diluted in RPMI medium immediately before use. The culture medium with the same amount of drug-free DMSO was used as negative control.
(§2) PC3 and MCF-7 cells (2.5×10^3), A2780, A2780cis (4.0×10^3), A2780CP-16 and lung cancer cells (H460, A549, H226, H838, H157, H1975, H2122, SKLU1 and H1299) were seeded in 96-well flat-bottomed microplates (100 μL) and incubated for 24 h (to allow cell adhesion) before drug testing. The medium was then removed and replaced with fresh medium which separately contained cisplatin and the gold(III) compounds 1 to 9 at increasing concentrations (from 0.01 to 100 μM) at 37° C. for 72-120 h. […] After treatment, cell proliferation was evaluated by the MTS assay (Promega). […] The dependency of the anticancer activity of the gold(III) compounds on the type of p53 or the absence of p53 was assessed in A2780 cells following p53 knockdown by CRISPR (Cong, L.; Ran, F. A.; Cox, D.; Lin, S.; Barretto, R.; Habib, N.; Hsu, P. D.; Wu, X.; Jiang, W.; Marraffini, L. A.; Zhang, F. Multiplex genome engineering using CRISPR/Cas systems Science. 2013, 15; 339 (6121), 819-23, incorporate herein by reference in its entirety). […]

Assay [1] deals with cisplatin-resistant A2780cis cells. In words: Cell proliferation assay (MTT/MTS), A2780cis. Conditions: for IC50: cisplatin-resistant A2780cis cells, 72-120 h, MTT or MTS, mean±SEM.
Description: (§3) Hodgkin's lymphoma cell line (L-540) and human androgen-resistant prostate cancer cell line (PC3) were obtained from the German Collection of Microorganisms and Cell Cultures (Braunschweig, Germany). Human breast adenocarcinoma cell line MCF-7 cell line (HTB-22™) was obtained from the American Type Culture Collection (ATCC, Rockville, Md., USA). Human ovarian epithelial carcinoma-derived cancer cells A2780 and its cisplatin-resistant clone A2780cis were from Sigma Inc (St. Louis, Mo., USA), and the isogenic cisplatin-resistant 2780CP-16 cells were cultured as previously described (Siddik, Z. H.; Mims, B.; Lozano, G.; Thai, G. Independent pathways of p53 induction by cisplatin and X-rays in a cisplatin-resistant ovarian tumor cell line. Cancer Res. 1998, 58, 698-703, incorporated herein by reference in its entirety). A panel of non-small cell lung cancer (NSCLC) cell lines (H460, A549, H226, H838, H157, H1975, H2122, SKLU1 and H1299) was obtained from Dr. Garth Powis at MD Anderson Cancer Center. Cell lines were further authenticated for their origin by BMR Genomics according to Cell ID System (Promega) protocol and using Genemapper ID Ver 3.2.1 to identify DNA short tandem repeat profiles. The parent cisplatin-resistant subclone (A2780cis) was maintained by weekly treatment with 1 μM cisplatin (Casagrande, N.; Celegato, M.; Borghese, C.; Mongiat, M.; Colombatti, A.; Aldinucci, D. Preclinical activity of the liposomal cisplatin Lipoplatin in ovarian cancer. Clin. Cancer Res. 2014, 20(21), 5496-5506, incorporated herein by reference in its entirety).
Cells were cultured in 5% CO2 in RPMI (for L-540, A2780, A2780cis, 2780CP-16, PC3 and the panel of lung cancer cells) or DMEM (for MCF-7 cells) media supplemented with 10% heat-inactivated fetal calf serum (FCS; Sigma-Aldrich-Italy), 0.2 mg/ml penicillin/streptomycin and 0.1% (w/v) L-gluamine (Biocrom) at 37° C. in a 5% CO2 fully humidified atmosphere.
as §1
(§4) PC3 and MCF-7 cells (2.5×10^3), A2780, A2780cis (4.0×10^3), A2780CP-16 and lung cancer cells (H460, A549, H226, H838, H157, H1975, H2122, SKLU1 and H1299) were seeded in 96-well flat-bottomed microplates (100 μL) and incubated for 24 h (to allow cell adhesion) before drug testing. […] After treatment, cell proliferation was evaluated by the MTS assay (Promega). […]

Assay [2] has as its system A2780 ovarian cancer cells (CRISPR p53 KO). Description: MTT assay, A2780 with p53 knocked out by CRISPR/Cas9. Conditions: A2780 clone with p53 knocked out. How it is done: as §2, with “h. Each treatment was performed in triplicate. Cell proliferation was assayed using the MTT assay or the MTS assay.” for “h.”
(In general: Tetrazolium dyes change colour on reduction, which living cells bring about.)

For a further assay, the system named is MCF-7 cells. Description: Cell proliferation assay (MTT/MTS), MCF-7. Conditions: 72-120 h, MTT or MTS, mean±SEM.
Description: as §3, with “Cell lines were further authenticated for their origin by BMR Genomics according to Cell ID System (Promega) protocol and using Genemapper ID Ver 3.2.1 to identify DNA short tandem repeat profiles. The parent cisplatin-resistant subclone (A2780cis) was maintained by weekly treatment with 1 μM cisplatin (Casagrande, N.; Celegato, M.; Borghese, C.; Mongiat, M.; Colombatti, A.; Aldinucci, D. Preclinical activity of the liposomal cisplatin Lipoplatin in ovarian cancer. Clin. Cancer Res. 2014, 20(21), 5496-5506, incorporated herein by reference in its entirety).” left out
as §4

Another assay has as its system L-540 cells. In words: Cell proliferation assay (MTS), L-540. Conditions: mean±SEM.
Description: as §3, with “Cell lines were further authenticated for their origin by BMR Genomics according to Cell ID System (Promega) protocol and using Genemapper ID Ver 3.2.1 to identify DNA short tandem repeat profiles. The parent cisplatin-resistant subclone (A2780cis) was maintained by weekly treatment with 1 μM cisplatin (Casagrande, N.; Celegato, M.; Borghese, C.; Mongiat, M.; Colombatti, A.; Aldinucci, D. Preclinical activity of the liposomal cisplatin Lipoplatin in ovarian cancer. Clin. Cancer Res. 2014, 20(21), 5496-5506, incorporated herein by reference in its entirety).” left out
as §4

Assay [3] relates to NSCLC cell lines (H460, A549, H226, H838, H157, H1975, H2122, SKLU1 and H1299). Description: Cell proliferation assay, NSCLC panel grouped by p53 status. Conditions: range over the NSCLC panel (WT-, Mut- and Null-p53).
Description: as §3, with “Cell lines were further authenticated for their origin by BMR Genomics according to Cell ID System (Promega) protocol and using Genemapper ID Ver 3.2.1 to identify DNA short tandem repeat profiles. The parent cisplatin-resistant subclone (A2780cis) was maintained by weekly treatment with 1 μM cisplatin (Casagrande, N.; Celegato, M.; Borghese, C.; Mongiat, M.; Colombatti, A.; Aldinucci, D. Preclinical activity of the liposomal cisplatin Lipoplatin in ovarian cancer. Clin. Cancer Res. 2014, 20(21), 5496-5506, incorporated herein by reference in its entirety).” left out
as §4

The next assay concerns A2780 cells. Description: Cell proliferation assay (MTT/MTS), A2780. Conditions: 72-120 h, MTT or MTS, mean±SEM.
Description: as §3, with “Cell lines were further authenticated for their origin by BMR Genomics according to Cell ID System (Promega) protocol and using Genemapper ID Ver 3.2.1 to identify DNA short tandem repeat profiles. The parent cisplatin-resistant subclone (A2780cis) was maintained by weekly treatment with 1 μM cisplatin (Casagrande, N.; Celegato, M.; Borghese, C.; Mongiat, M.; Colombatti, A.; Aldinucci, D. Preclinical activity of the liposomal cisplatin Lipoplatin in ovarian cancer. Clin. Cancer Res. 2014, 20(21), 5496-5506, incorporated herein by reference in its entirety).” left out
as §4

The next assay has as its system PC3 cells. In words: Cell proliferation assay (MTT/MTS), PC3. Conditions: 72-120 h, MTT or MTS, mean±SEM.
Description: as §3, with “Cell lines were further authenticated for their origin by BMR Genomics according to Cell ID System (Promega) protocol and using Genemapper ID Ver 3.2.1 to identify DNA short tandem repeat profiles. The parent cisplatin-resistant subclone (A2780cis) was maintained by weekly treatment with 1 μM cisplatin (Casagrande, N.; Celegato, M.; Borghese, C.; Mongiat, M.; Colombatti, A.; Aldinucci, D. Preclinical activity of the liposomal cisplatin Lipoplatin in ovarian cancer. Clin. Cancer Res. 2014, 20(21), 5496-5506, incorporated herein by reference in its entirety).” left out
as §4

Assay [4] deals with L-540, PC3, MCF-7, A2780 and A2780cis cell lines. In words: In vitro cytotoxicity across the cell line panel, compared with cisplatin. Conditions: all cell lines tested. As to the method: as §2, with “h. Each treatment was performed in triplicate. Cell proliferation was assayed using the MTT assay or the MTS assay.” for “h.”
In assay [5] the test system is WT-p53 A2780 ovarian cancer cells (CRISPR Control). Description: MTT assay, A2780 transfected with CRISPR control plasmid. Conditions: A2780 clone with control plasmid. How it is done:
as §2, with “h. Each treatment was performed in triplicate. Cell proliferation was assayed using the MTT assay or the MTS assay.” for “h.”

The subject of assay [6] is cisplatin-resistant 2780CP cells. Description: Cell proliferation assay, 2780CP-16. Conditions: 2780CP versus A2780.
Description: Hodgkin's lymphoma cell line (L-540) and human androgen-resistant prostate cancer cell line (PC3) were obtained from the German Collection of Microorganisms and Cell Cultures (Braunschweig, Germany). Human breast adenocarcinoma cell line MCF-7 cell line (HTB-22™) was obtained from the American Type Culture Collection (ATCC, Rockville, Md., USA). […]
as §2, with “testing.” for “testing. The medium was then removed and replaced with fresh medium which separately contained cisplatin and the gold(III) compounds 1 to 9 at increasing concentrations (from 0.01 to 100 μM) at 37° C. for 72-120 h.”

In general, IC50 refers to the point on the concentration scale where inhibition reaches its midpoint. Turning to `CN(C)C(=S)[S][Au+2].Cc1ccc(-c2ccc(C)cn2)nc1.[Cl-].[Cl-]` [Compound 4], the “potency from dose-response curves in A549 cells” value in the assay with A549 cells was “greater potencies than compounds 3, 6, and 9”. Moreover, the IC50 is 170 ± 10 nM in assay [1]; 83 ± 3 nM in [2]; 280 ± 20 nM in the assay with MCF-7 cells; 2700 ± 220 nM in the assay with L-540 cells; 120 to 310 nM in assay [3]; 280 ± 30 nM with A2780 cells. In addition, the IC50 in the assay with PC3 cells came to 590 ± 50 nM; in assay [5] it was 87 ± 3 nM. In addition, the “activity compared with cisplatin” value in assay [4] was “generally more effective than cisplatin”.
Take “cis-[Pt(NH3)2Cl2] [Cisplatin, reference compound]”: in assay [6], the “fold cisplatin resistance of 2780CP cells” value was 20 fold. For the same molecule, the “fold higher IC50 in A2780cis than in A2780” value in assay [1] (A2780cis versus A2780) is “about 7 fold”. Moreover, the IC50 in assay [1] was 10400 ± 900 nM; with MCF-7 cells it was 22200 ± 200 nM; in the assay on L-540 cells it was 2500 ± 100 nM; in the assay on A2780 cells, 1500 ± 100 nM; with PC3 cells, 3300 ± 300 nM. In addition, the “Fold resistance A2780cis/A2780 ratio” value in [1] (ratio of IC50 in A2780cis to IC50 in A2780) is recorded as 6.93.
